These results are taken from ChEMBL document CHEMBL1149925, “Application of hygromycin a structure activity relationships to the antibiotic A201A” (1993).

Structures are written as SMILES. ≈ marks a conversion by molar mass, not a printed value. Where only a bound is given, the exact number is not on record here.

The subject of experiment [1] is Brachyspira hyodysenteriae. The experiment is described as follows: Tested for antibacterial activity expressed as minimum inhibitory concentration against Serpulina (Treponema) hyodysenteriae. The class given is functional.
The subject of experiment [2] is Pasteurella multocida. The experiment is described as follows: Tested for antibacterial activity expressed as minimum inhibitory concentration against Pasteurella multocida. The class given is functional.

With `C=CCOc1ccc(/C=C(\C)C(=O)N[C@@H]2[C@H](O)[C@@H](O)[C@H]3OCO[C@H]3[C@@H]2O)cc1`, the MIC in experiment [1] was found to be 6.25 µg/mL (≈ 16 µM); in experiment [2], 50 µg/mL (≈ 128 µM).
The corresponding values for `CC(=O)[C@H]1O[C@@H](Oc2ccc(/C=C(\C)C(=O)N[C@@H]3[C@H](O)[C@@H](O)[C@H]4OCO[C@H]4[C@@H]3O)cc2O)[C@@H](O)[C@@H]1O` [HYGROMYCIN A] are 0.78 µg/mL (≈ 1.52 µM) and 0.78 µg/mL (≈ 1.52 µM).
Turning to `C=CCOc1ccc(/C=C(\C)C(=O)N[C@H]2[C@@H](O)[C@H](OC)O[C@@H]2CO)cc1O`, the MIC in experiment [1] and in experiment [2] was more than 200 µg/mL in each case.
Take `COc1ccc(/C=C(\C)C(=O)N[C@H]2C(O)[C@H](n3cnc4c(N(C)C)ncnc43)O[C@@H]2CO)cc1` (some centres not stated): the MIC in experiment [1] stood at 50 µg/mL (≈ 107 µM); in experiment [2], 200 µg/mL (≈ 427 µM).
Taken in the same sequence, the figures for `COc1ccc(/C=C(\C)C(=O)N[C@@H]2[C@H](O)[C@@H](O)[C@H]3OCO[C@H]3[C@@H]2O)cc1` were more than 200 µg/mL and more than 200 µg/mL.
For the molecule `CO/C(CO[C@H]1O[C@H](C)[C@@H](OC)[C@H](OC)[C@@H]1O)=C1\O[C@@H](Oc2ccc(/C=C(\C)C(=O)NC3C(O)[C@H](n4cnc5c(N(C)C)ncnc54)O[C@@H]3CO)cc2)[C@@H](O)[C@@H]1O` (some centres not stated), the MIC in experiment [1] and in experiment [2] was 3.13 µg/mL (≈ 3.9 µM) each time.
Turning to `C=CCOc1ccc(/C=C(\C)C(=O)N[C@H]2C(O)[C@H](n3cnc4c(N(C)C)ncnc43)O[C@@H]2CO)cc1O` (some centres not stated), the figures for the MIC in experiment [1] and in experiment [2] were 1.56 µg/mL (≈ 3.06 µM) and 6.25 µg/mL (≈ 12.2 µM), respectively.
The corresponding values for `C=CCOc1ccc(/C=C(\C)C(=O)N[C@@H]2[C@H](O)[C@@H](O)[C@H]3OCO[C@H]3[C@@H]2O)cc1O` are 0.78 µg/mL (≈ 1.91 µM) and 3.13 µg/mL (≈ 7.68 µM).
For the molecule `C/C(=C\c1ccc(O[C@@H]2O[C@H]([C@H](C)O)[C@@H](O)[C@@H]2O)c(O)c1)C(=O)N[C@H]1C(O)[C@H](n2cnc3c(N(C)C)ncnc32)O[C@@H]1CO` (some centres not stated), the MIC in experiment [1] and in experiment [2] was 200 µg/mL (≈ 324 µM) throughout.
In the case of `C/C(=C\c1ccc(O[C@@H]2O[C@H]([C@H](C)O)[C@@H](O)[C@@H]2O)c(O)c1)C(=O)N[C@@H]1[C@H](O)[C@@H](O)[C@H]2OCO[C@H]2[C@@H]1O`, the MIC in experiment [1] was found to be 3.13 µg/mL (≈ 6.1 µM); in experiment [2], 6.25 µg/mL (≈ 12.2 µM).
The corresponding values for `C=CCOc1ccc(/C=C(\C)C(=O)N[C@H]2C(O)[C@H](n3cnc4c(N(C)C)ncnc43)O[C@@H]2CO)cc1` (some centres not stated) are 50 µg/mL (≈ 101 µM) and more than 200 µg/mL.
